Results taken from PubChem BioAssay (NCI).
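Protocol summary: plate cells (96-well), add compound at 5 concentrations, incubate 48 h, interpolate endpoints linearly. GI50 = concentration required for 50% inhibition of growth. TGI: concentration producing complete growth inhibition.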

Key:
Assay in all cases: DTP human tumour cell line panel, 48 h
OVCAR-8 ovarian = test system: OVCAR-8 ovarian
RPMI-8226 leukemia = test system: RPMI-8226 leukemia
HL-60(TB) leukemia = test system: HL-60(TB) leukemia
K-562 leukemia = test system: K-562 leukemia
ACHN renal = test system: ACHN renal
HOP-92 NSCLC = test system: HOP-92 NSCLC
HCT-15 colon = test system: HCT-15 colon
HOP-62 NSCLC = test system: HOP-62 NSCLC
NCI/ADR-RES ovarian = test system: NCI/ADR-RES ovarian

Compound `c1ccc(-c2csc3ncn4cnnc4c23)cc1` has a TGI (OVCAR-8 ovarian) greater than 100 µM, a TGI (RPMI-8226 leukemia) greater than 100 µM and a TGI (HL-60(TB) leukemia) greater than 100 µM. It also gave a TGI (K-562 leukemia) greater than 100 µM, a TGI (ACHN renal) greater than 100 µM and a TGI (HOP-92 NSCLC) of 84.7 µM. It also gave a TGI (HCT-15 colon) greater than 100 µM.
Compound `CC(=O)[CH-]C(C)=O.CC(=O)[CH-]C(C)=O.CC(=O)[CH-]C(C)=O.[Ga+3]` has a GI50 (OVCAR-8 ovarian) greater than 100 µM, a TGI (OVCAR-8 ovarian) greater than 100 µM and a GI50 (RPMI-8226 leukemia) greater than 100 µM. It also gave a TGI (RPMI-8226 leukemia) greater than 100 µM, a GI50 (ACHN renal) greater than 100 µM and a TGI (ACHN renal) greater than 100 µM. The GI50 (HCT-15 colon) was greater than 100 µM and the TGI (HCT-15 colon) was greater than 100 µM.
`O=[N+]([O-])/C=C/c1ccc(Cl)cc1Cl` showed a TGI (HOP-62 NSCLC) of 28.6 µM, a TGI (OVCAR-8 ovarian) of 67.7 µM and a TGI (RPMI-8226 leukemia) of 5.66 µM. It also gave a TGI (HL-60(TB) leukemia) of 25.3 µM, a TGI (K-562 leukemia) of 9.94 µM and a TGI (ACHN renal) of 34.3 µM. It also gave a TGI (HOP-92 NSCLC) of 31 µM and a TGI (HCT-15 colon) of 46.4 µM.
`Nc1nc2ccccc2c2c1S(=O)(=O)c1ccc(Cl)cc1C2=O` was tested, and the GI50 (HOP-62 NSCLC) was 2.31 µM, the TGI (HOP-62 NSCLC) was greater than 50 µM and the GI50 (OVCAR-8 ovarian) was 1.54 µM. The TGI (OVCAR-8 ovarian) was greater than 50 µM, the GI50 (RPMI-8226 leukemia) was 0.719 µM and the TGI (RPMI-8226 leukemia) was 3.31 µM. The GI50 (HL-60(TB) leukemia) was 1.39 µM, the TGI (HL-60(TB) leukemia) was 3.7 µM and the GI50 (NCI/ADR-RES ovarian) was 1.46 µM. For the same compound, the TGI (NCI/ADR-RES ovarian) was 6.27 µM, the GI50 (K-562 leukemia) was 1.45 µM and the TGI (K-562 leukemia) was greater than 50 µM. The GI50 (ACHN renal) was 1.38 µM, the TGI (ACHN renal) was greater than 50 µM and the GI50 (HOP-92 NSCLC) was 0.542 µM. It also gave a TGI (HOP-92 NSCLC) of 3.63 µM, a GI50 (HCT-15 colon) of 0.812 µM and a TGI (HCT-15 colon) of 2.31 µM.
`CC(N)CC(=O)O` (centres undefined) showed a TGI (RPMI-8226 leukemia) greater than 5000 µM, a TGI (HL-60(TB) leukemia) greater than 5000 µM and a TGI (K-562 leukemia) greater than 5000 µM. For the same compound, the TGI (ACHN renal) was greater than 5000 µM, the TGI (HOP-92 NSCLC) was greater than 5000 µM and the TGI (HCT-15 colon) was greater than 5000 µM.
With `O=C(c1c(O)cc(O)cc1O)C1Cc2ccccc21` (centres undefined) the TGI (HOP-62 NSCLC) was greater than 100 µM, the TGI (OVCAR-8 ovarian) was greater than 100 µM and the TGI (RPMI-8226 leukemia) was greater than 100 µM. The TGI (HL-60(TB) leukemia) was greater than 100 µM, the TGI (K-562 leukemia) was greater than 100 µM and the TGI (ACHN renal) was greater than 100 µM. For the same compound, the TGI (HOP-92 NSCLC) was greater than 100 µM and the TGI (HCT-15 colon) was greater than 100 µM.
`CCOC(=O)C(CCCNC(=O)OC(C)(C)C)N(Cc1ccc(OC)cc1OC)C(=O)CC(=O)CP(=O)(OCC)OCC` (centres undefined) gave a TGI (HOP-62 NSCLC) greater than 100 µM, a TGI (OVCAR-8 ovarian) greater than 100 µM and a TGI (RPMI-8226 leukemia) greater than 100 µM. For the same compound, the TGI (HL-60(TB) leukemia) was greater than 100 µM, the TGI (K-562 leukemia) was greater than 100 µM and the TGI (ACHN renal) was greater than 100 µM. For the same compound, the TGI (HOP-92 NSCLC) was greater than 100 µM.
With `CC(=O)OCC(CC[CH2][Sn]([Cl])([Cl])[c]1ccccc1)OC(C)=O` (centres undefined) the GI50 (HOP-62 NSCLC) was 23.9 µM, the TGI (HOP-62 NSCLC) was 46.8 µM and the GI50 (OVCAR-8 ovarian) was 17.5 µM. For the same compound, the TGI (OVCAR-8 ovarian) was 32.9 µM, the GI50 (RPMI-8226 leukemia) was 22.9 µM and the TGI (RPMI-8226 leukemia) was 58.9 µM. For the same compound, the GI50 (HL-60(TB) leukemia) was 16.8 µM, the TGI (HL-60(TB) leukemia) was 42.6 µM and the GI50 (K-562 leukemia) was 24.9 µM. For the same compound, the TGI (K-562 leukemia) was 71.8 µM, the GI50 (ACHN renal) was 23.9 µM and the TGI (ACHN renal) was 42.6 µM. For the same compound, the GI50 (HOP-92 NSCLC) was 17.1 µM, the TGI (HOP-92 NSCLC) was 33.4 µM and the GI50 (HCT-15 colon) was 17.4 µM. For the same compound, the TGI (HCT-15 colon) was 32.1 µM.
With `C[P+]1(c2ccccc2)CCCCC1` the TGI (HOP-62 NSCLC) was greater than 100 µM, the TGI (OVCAR-8 ovarian) was greater than 100 µM and the TGI (RPMI-8226 leukemia) was greater than 100 µM. For the same compound, the TGI (K-562 leukemia) was greater than 100 µM, the TGI (ACHN renal) was greater than 100 µM and the TGI (HCT-15 colon) was greater than 100 µM.
